Laboratory results as given in EPA's ToxValDB 9.5.
Several values for one entry are separate records, joined by “and”; a condition that tells them apart may be missing. Identical values can stand only once.

Test system: Mus musculus
Details: oral
[1] = short-term, duration: 14 days, gavage, M, BALB/c, spleen: spleen CD3+ cells + spleen: spleen CD3+CD4+ cells + spleen: spleen CD3+CD8+ cells
[2] = short-term, duration: 14 days, gavage, M, BALB/c, spleen: spleen: relative weight
[3] = short-term, duration: 21 days, gavage, F, B6C3F1, Survival rate (influenza A infection)
[4] = short-term, duration: 21 days, gavage, M, BALB/c, spleen: lymphocyte proliferation (ConA)
[5] = short-term, duration: 21 days, gavage, M, BALB/c, spleen: spleen CD3+ cells + spleen: spleen CD3+CD4+ cells + spleen: spleen CD3+CD8+ cells + spleen: spleen: relative weight
[6] = short-term, duration: 28 days, gavage, F, B6C3F1, IgM antibody-producing cells (SRBC)
[7] = short-term, duration: 28 days, gavage, F, B6C3F1, peritoneal cavity: IL-6 levels (+LPS in vivo) + peritoneal cavity: TNF-alpha levels (+LPS in vitro) + spleen: spleen: relative weight
[8] = short-term, duration: 28 days, gavage, F, B6C3F1, serum lysozyme activity + spleen: splenic CD4-/CD8+ + spleen: splenic CD4+/CD8-
[9] = short-term, duration: 28 days, gavage, F, B6C3F1, spleen (B cells): IL-6 levels (+LPS)
[10] = short-term, duration: 28 days, gavage, F, B6C3F1, thymus: thymic CD4+/CD8+
[11] = short-term, duration: 28 days, gavage, M, B6C3F1, IgM antibody-producing cells (SRBC)
[12] = short-term, duration: 28 days, gavage, M, B6C3F1, spleen: Splenic NK cell activity
[13] = short-term, duration: 28 days, gavage, M, B6C3F1, spleen: splenic CD4-/CD8- + spleen: splenic CD4-/CD8+ + spleen: splenic CD4+/CD8- + spleen: splenic CD4+/CD8+
[14] = subchronic, duration: 30 days, gavage, M, C57BL/6, spleen: spleen: relative weight
[15] = subchronic, duration: 60 days, gavage, M, C57BL/6, % of sub G1 population (splenocytes) + spleen: apoptotic cells (splenocytes) + spleen: viability in murine splenocytes + thymus: apoptotic …
[16] = subchronic, duration: 60 days, gavage, M, C57BL/6, % of sub G1 population (thymocytes) + body weight change + spleen: necrotic cells (splenocytes) + spleen: spleen cellularity + spleen: …
[17] = subchronic, duration: 60 days, gavage, M, C57BL/6, IgM antibody titer (SRBC) + spleen: IL-4 levels
[18] = subchronic, duration: 60 days, gavage, M, C57BL/6, blood serum: IL-1 beta (+LPS in vivo) + blood serum: IL-1 beta levels + blood serum: IL-6 levels + peritoneal cavity: IL-1 beta levels (+LPS…
[19] = subchronic, duration: 60 days, gavage, M, C57BL/6, blood serum: IL-6 levels (+LPS in vivo) + blood serum: TNF-alpha levels (+LPS in vivo) + peritoneal cavity: IL-6 levels (+LPS in vivo) + …
[20] = subchronic, duration: 60 days, gavage, M, C57BL/6, body weight change + food intake from day 60 to 61 + IgE antibody titer (SRBC) + IgG antibody titer (SRBC) + IgG1 antibody titer (SRBC) + …
[21] = subchronic, duration: 60 days, gavage, M, C57BL/6, body weight change + peritoneal cavity: IL-6 levels + peritoneal cavity: IL-6 levels (+LPS in vitro) + peritoneal cavity: TNF-alpha levels…
[22] = subchronic, duration: 60 days, gavage, M, C57BL/6, liver: liver index
[23] = subchronic, duration: 60 days, gavage, M, C57BL/6, peritoneal cavity: IL-1 beta levels
[24] = subchronic, duration: 60 days, gavage, M, C57BL/6, serum corticosterone + spleen: lymphocyte proliferation (LPS) + spleen: spleen B220+ Cells + spleen: spleen CD8+ cells + thymus: thymus CD4…
[25] = subchronic, duration: 60 days, gavage, M, C57BL/6, spleen: lymphocyte proliferation (ConA) + thymus: thymus DN (CD4-/CD8-)

Compound: O=S(=O)(O)C(F)(F)C(F)(F)C(F)(F)C(F)(F)C(F)(F)C(F)(F)C(F)(F)C(F)(F)F [Perfluorooctanesulfonic acid]
- LOEL [1]: 5 mg/kg-day
- NOEL [1]: 2.5 mg/kg-day
- LOEL [2]: 20 mg/kg-day
- NOEL [2]: 5 mg/kg-day and 10 mg/kg-day
- LOEL (short-term, duration: 14 days, gavage, M, BALB/c, thymus: percentage of apoptotic cells in thymus + thymus: thymus: relative weight): 5 mg/kg-day
- LOEL (TAD) (short-term, duration: 21 days, gavage, F, B6C3F1, IgM antibody titer (TNP)): 7 mg/kg-day
- LOEL [3]: 0.025 mg/kg-day
- NOEL [3]: 0.005 mg/kg-day
- NOEL (short-term, duration: 21 days, gavage, F, B6C3F1, body weight + body weight during influenza A infection (day 41, 20 days after infection) + spleen: spleen: relative weight + Survival time (…): 0.025 mg/kg-day
- LOEL (short-term, duration: 21 days, gavage, F, B6C3F1, body weight during influenza A infection (day 30, 9 days after infection)): 0.005 mg/kg-day
- LOEL [4]: 5 mg/kg-day
- NOEL [4]: 2.5 mg/kg-day
- LOEL (short-term, duration: 21 days, gavage, M, BALB/c, spleen: spleen CD3+ cells (cells normalized to control) + spleen: spleen CD3+CD4+ cells (cells normalized to control) + spleen: spleen CD3+…): 2.5 mg/kg-day
- NOEL (short-term, duration: 21 days, gavage, M, BALB/c, spleen: spleen CD3+ cells + spleen: spleen CD3+CD4+ cells (cells normalized to control) + spleen: spleen CD3+CD8+ cells (cells normalized to…): 10 mg/kg-day
- LOEL [5]: 10 mg/kg-day
- NOEL [5]: 5 mg/kg-day
- LOEL (short-term, duration: 28 days, diet, M, B6C3F1, corticosterone): 0.000156%
- NOEL (short-term, duration: 28 days, diet, M, B6C3F1, haemagglutination + IgG antibody level (SRBC 1:200) + IgM antibody-secreting cells (SRBC) + IgM antibody level (SRBC 1:200) + IgM antibody …): 0.000156%
- NOEL (short-term, duration: 28 days, diet, M, C57BL/6, liver: IFN-gamma levels + liver: IFN-gamma levels (+Con A in vivo) + liver: IL-4 levels (+Con A in vivo) + liver: TNF-alpha levels + liver: …): 0.0001%
- NOEL (short-term, duration: 28 days, gavage, F, B6C3F1, IL-4 levels (+PMA) + spleen (CD4+ T cells): IL-5 levels (+PMA) + spleen (CD4+ T cells): IL-6 levels (+anti-CD3) + spleen (CD4+ T cells): IL-…): 0.0331 mg/kg-day
- LOEL (TAD) [6]: 0.5 mg/kg-day
- NOEL (TAD) [6]: 0.1 mg/kg-day
- LOEL (short-term, duration: 28 days, gavage, F, B6C3F1, blood serum: IL-6 levels (+LPS in vivo) + blood serum: TNF-alpha levels (+LPS in vivo)): 0.0331 mg/kg-day
- NOEL (short-term, duration: 28 days, gavage, F, B6C3F1, eosinophils + lymphocytes + monocytes + neutrophils + platelet count + RBC + spleen: cells expressing CD19-/CD21+ + spleen: cells expressing…): 0.166 mg/kg-day
- NOEL (short-term, duration: 28 days, gavage, F, B6C3F1, peritoneal cavity: IL-6 levels (+LPS in vitro) + peritoneal cavity: IL-6 levels (+LPS in vivo) + peritoneal cavity: TNF-alpha levels (+LPS …): 9.93 mg/kg-day
- LOEL [7]: 9.93 mg/kg-day
- NOEL [7]: 0.0993 mg/kg-day
- LOEL (TAD) [8]: 0.1 mg/kg-day
- NOEL (TAD) [8]: 0.05 mg/kg-day
- LOEL [9]: 0.0331 mg/kg-day
- NOEL [9]: 0.00331 mg/kg-day
- LOEL (short-term, duration: 28 days, gavage, F, B6C3F1, spleen (B cells): IL-6 levels (+anti-CD40)): 0.00331 mg/kg-day
- NOEL (short-term, duration: 28 days, gavage, F, B6C3F1, spleen: IL-6 secreting cells (# splenocytes)): 0.0331 mg/kg-day
- LOEL (short-term, duration: 28 days, gavage, F, B6C3F1, spleen: IL-6 secreting cells (# splenocytes) + spleen: IL-6 secreting cells (% splenocytes)): 0.0993 mg/kg-day
- NOEL (TAD) (short-term, duration: 28 days, gavage, F, B6C3F1, spleen: lymphocyte proliferation (ConA) + spleen: lymphocyte proliferation (LPS) + spleen: spleen cellularity + spleen: spleen: relative …): 5 mg/kg-day
- LOEL (TAD) [10]: 1 mg/kg-day
- NOEL (TAD) [10]: 0.5 mg/kg-day
- LOEL (TAD) [11]: 0.05 mg/kg-day
- NOEL (TAD) [11]: 0.005 mg/kg-day
- NOEL (TAD) (short-term, duration: 28 days, gavage, M, B6C3F1, serum lysozyme activity + spleen: lymphocyte proliferation (ConA) + spleen: lymphocyte proliferation (LPS) + spleen: spleen cellularity + …): 5 mg/kg-day
- LOEL (TAD) [12]: 0.5 mg/kg-day
- NOEL (TAD) [12]: 0.1 mg/kg-day
- LOEL (TAD) [13]: 0.1 mg/kg-day
- NOEL (TAD) [13]: 0.05 mg/kg-day
- LOEL (TAD) [14]: 300 mg/kg-day
- NOEL (TAD) [14]: 150 mg/kg-day
- LOEL [15]: 0.0833 mg/kg-day
- NOEL [15]: 0.0167 mg/kg-day
- LOEL [16]: 0.833 mg/kg-day
- NOEL [16]: 0.0833 mg/kg-day
- NOEL (subchronic, duration: 60 days, gavage, M, C57BL/6, DTH response + IgG2a antibody titer (SRBC) + kidney: kidney index + serum corticosterone): 0.833 mg/kg-day
- LOEL [17]: 0.0833 mg/kg-day
- NOEL [17]: 0.0167 mg/kg-day
- LOEL (subchronic, duration: 60 days, gavage, M, C57BL/6, IgM antibody-secreting cells (SRBC) + Splenic NK cell activity): 0.0833 mg/kg-day
- NOEL (subchronic, duration: 60 days, gavage, M, C57BL/6, IgM antibody-secreting cells (SRBC) + spleen: spleen DP (CD4+/CD8+) + Splenic NK cell activity): 0.00833 mg/kg-day
- LOEL [18]: 0.833 mg/kg-day
- NOEL [18]: 0.417 mg/kg-day
- LOEL [19]: 2.08 mg/kg-day
- NOEL [19]: 0.833 mg/kg-day
- NOEL (subchronic, duration: 60 days, gavage, M, C57BL/6, blood serum: TNF-alpha levels): 2.08 mg/kg-day
- LOEL [20]: 0.833 mg/kg-day
- NOEL [20]: 0.417 mg/kg-day
- LOEL [21]: 0.417 mg/kg-day
- NOEL [21]: 0.0833 mg/kg-day
- LOEL [22]: 0.417 mg/kg-day
- NOEL [22]: 0.0833 mg/kg-day
- LOEL (subchronic, duration: 60 days, gavage, M, C57BL/6, peritoneal cavity macrophages): 0.0167 mg/kg-day
- NOEL (subchronic, duration: 60 days, gavage, M, C57BL/6, peritoneal cavity macrophages + spleen: IL-1 beta mRNA): 0.0083 mg/kg-day
- LOEL [23]: 0.0833 mg/kg-day
- NOEL [23]: 0.0167 mg/kg-day
- LOEL [24]: 0.833 mg/kg-day
- NOEL [24]: 0.417 mg/kg-day
- LOEL [25]: 2.08 mg/kg-day
- NOEL [25]: 0.833 mg/kg-day
- LOEL (subchronic, duration: 60 days, gavage, M, C57BL/6, spleen: spleen CD4+ cells + spleen: spleen cellularity + spleen: spleen DN (CD4-/CD8-) + spleen: spleen DP (CD4+/CD8+) + spleen: spleen: …): 0.417 mg/kg-day
- NOEL (subchronic, duration: 60 days, gavage, M, C57BL/6, spleen: spleen CD4+ cells + spleen: spleen cellularity + spleen: spleen DN (CD4-/CD8-) + spleen: spleen: relative weight + thymus: thymus …): 0.0833 mg/kg-day
